Test results as given in patent US20220347171A1, “TREATMENT OF PRURIGO NODULARIS” (TREVI THERAPEUTICS, INC., priority 2016, published 2022).
Structures can show the parent of a compound that is named as a salt.

System: prurigo nodularis patients
Assay: TR03ext (Example 3): PAS prurigo lesions with excoriations/crusts; Stage 0 0%, Stage 1 1%-25%, Stage 2 26%-50%, Stage 3 51%-75%, Stage 4 76%-100%
Assay type: in vivo, human
Source text: In some embodiments, after the treatment the patient experiences a substantial reduction of itch that is characterized by at least one category/stage improvement in Prurigo Activity Score (PAS). In particular embodiments, after the treatment the patient experiences a reduction of itch that results in at least one category/stage improvement in Prurigo Activity Score (PAS) domains of number of prurigo lesions, prurigo lesions with excoriations/crusts and/or healed prurigo lesions. The PAS consists of 7 qualitative and quantitative measurements related to the examination of the skin. Type, number, distribution, affected body parts, and quantitative number of lesions in a representative body part are documented. The biggest lesion and the most representative lesion are monitored with documentation of height and area measurements. Prurigo lesion activity is recorded as a percentages based on their stage (0-4). In some embodiments, number measurements of lesions on the body have four numerical categories: 0, 1-19, 20-100 and >100. In some embodiments, prurigo lesions with excoriations/crusts have five categories: Stage 4 (76%-100%), Stage 3 (51%-75%), Stage 2 (26%-50%), Stage 1 (1-25%) and Stage 0 (0%). In some embodiments, healed prurigo lesions have five categories: Stage 4 (0-24%), Stage 3 (25-49%), Stage 2 (50-74%), Stage 1 (75%-99%), Stage 0 (100%).
This clinical study was a Phase 2 Open Label Extension Study (clinical study TR03ext) of the randomized, double-blind, 3-parallel arm, placebo controlled dose ranging study described in Example 2. All those subjects who were randomized, and then completed Example 2 study, were eligible to participate in the Extension Study.
The primary endpoint was a description of the overall incidence and nature of Treatment-Emergent AEs (TEAES) during weeks 5-50 of the study. Exploratory efficacy endpoints included Change from Baseline patient reported outcome measures of Worst itch NRS, itchy VRS and ItchyQoL, by Treatment Period study visit and Baseline NRS score. There was also an assessment of any potential skin lesion changes over time using the metrics of the PAS.
Patients in Extension Study were titrated over a dose range of 30 mg QD to 180 mg BID based on tolerability. The selected dose range was based on Example 2 study whereby patients were titrated from a 30 mg QD dose either to 30 mg BID, 60 mg BID, 90 mg BID, 120 mg BID or a 180 mg BID dose. The highest dose proposed was 180 mg BID (360 mg daily dose), and was well below the highest recommended daily treatment of 160 mg IV (equivalent to 960 mg oral) for the current marketed parenteral administered product.
Table 15, 16 and 17 display excoriations/crusts lesion PAS data for subjects who received treatment for at least 6 months, subjects who received treatment for at least 9 months and subjects who completed 50 weeks of treatment in the study, respectively. The status of the prurigo lesions with excoriations/crusts is reported as percentages based on their stage (0-4) using a grading system: Stage 0 (0% excoriations/crusts); Stage 1 (1%-25% excoriations/crusts); Stage 2 (26%-50% excoriations/crusts); Stage 3 (51%-75% excoriations/crusts); Stage 4: (76%-100% excoriations/crusts). Thus, the higher the stage, the more severe is the prurigo skin pathology.

[1] = treatment for at least 6 months

`Oc1ccc2c3c1OC1[C@@H](O)CC[C@@]4(O)[C@@H](C2)N(CC2CCC2)CC[C@]314` (stereo partly drawn) [Nalbuphine, 17-(cyclobutylmethyl)-4,5α-epoxymorphinian-3, 6α, 14-triol, hydrochloride] was tested, and the “Subjects with at least one category improvement (lesser stage) in the percentage of excoriations/crust lesions (PAS)” value (after 6 months, 13/16) was 81.2%, the “Subjects with at least one category improvement (lesser stage) in the percentage of excoriations/crust lesions (PAS)” value (after 9 months, 9/13) was 69.2% and the “Subjects with at least one category improvement (lesser stage) in the percentage of excoriations/crust lesions (PAS)” value (after 12 months, 8/12) was 66.6%. For the same compound, the “Excoriated/Crusts PAS Category Shift: Baseline Stage 0 to Last Observed Stage 0” value (treatment for 50 weeks) was 1 (7.1%) Number (%) of Subjects, the “Excoriated/Crusts PAS Category Shift: Baseline Stage 0 to Last Observed Stage 1” value (treatment for 50 weeks) was 0 Number (%) of Subjects and the “Excoriated/Crusts PAS Category Shift: Baseline Stage 0 to Last Observed Stage 2” value (treatment for 50 weeks) was 0 Number (%) of Subjects. For the same compound, the “Excoriated/Crusts PAS Category Shift: Baseline Stage 0 to Last Observed Stage 3” value (treatment for 50 weeks) was 0 Number (%) of Subjects, the “Excoriated/Crusts PAS Category Shift: Baseline Stage 0 to Last Observed Stage 4” value (treatment for 50 weeks) was 0 Number (%) of Subjects and the “Excoriated/Crusts PAS Category Shift: Baseline Stage 1 to Last Observed Stage 0” value (treatment for 50 weeks) was 0 Number (%) of Subjects. The “Excoriated/Crusts PAS Category Shift: Baseline Stage 1 to Last Observed Stage 1” value (treatment for 50 weeks) was 1 (7.7%) Number (%) of Subjects, the “Excoriated/Crusts PAS Category Shift: Baseline Stage 1 to Last Observed Stage 2” value (treatment for 50 weeks) was 0 Number (%) of Subjects and the “Excoriated/Crusts PAS Category Shift: Baseline Stage 1 to Last Observed Stage 3” value (treatment for 50 weeks) was 0 Number (%) of Subjects. For the same compound, the “Excoriated/Crusts PAS Category Shift: Baseline Stage 1 to Last Observed Stage 4” value (treatment for 50 weeks) was 1 (7.7%) Number (%) of Subjects, the “Excoriated/Crusts PAS Category Shift: Baseline Stage 2 to Last Observed Stage 0” value (treatment for 50 weeks) was 0 Number (%) of Subjects and the “Excoriated/Crusts PAS Category Shift: Baseline Stage 2 to Last Observed Stage 1” value (treatment for 50 weeks) was 5 (38.5%) Number (%) of Subjects. The “Excoriated/Crusts PAS Category Shift: Baseline Stage 2 to Last Observed Stage 2” value (treatment for 50 weeks) was 0 Number (%) of Subjects, the “Excoriated/Crusts PAS Category Shift: Baseline Stage 2 to Last Observed Stage 3” value (treatment for 50 weeks) was 0 Number (%) of Subjects and the “Excoriated/Crusts PAS Category Shift: Baseline Stage 2 to Last Observed Stage 4” value (treatment for 50 weeks) was 0 Number (%) of Subjects. For the same compound, the “Excoriated/Crusts PAS Category Shift: Baseline Stage 3 to Last Observed Stage 0” value (treatment for 50 weeks) was 0 Number (%) of Subjects, the “Excoriated/Crusts PAS Category Shift: Baseline Stage 3 to Last Observed Stage 1” value (treatment for 50 weeks) was 0 Number (%) of Subjects and the “Excoriated/Crusts PAS Category Shift: Baseline Stage 3 to Last Observed Stage 2” value (treatment for 50 weeks) was 2 (15.4%) Number (%) of Subjects. For the same compound, the “Excoriated/Crusts PAS Category Shift: Baseline Stage 3 to Last Observed Stage 3” value (treatment for 50 weeks) was 1 (7.7%) Number (%) of Subjects, the “Excoriated/Crusts PAS Category Shift: Baseline Stage 3 to Last Observed Stage 4” value (treatment for 50 weeks) was 0 Number (%) of Subjects and the “Excoriated/Crusts PAS Category Shift: Baseline Stage 4 to Last Observed Stage 0” value (treatment for 50 weeks) was 1 (7.7%) Number (%) of Subjects. The “Excoriated/Crusts PAS Category Shift: Baseline Stage 4 to Last Observed Stage 1” value (treatment for 50 weeks) was 0 Number (%) of Subjects, the “Excoriated/Crusts PAS Category Shift: Baseline Stage 4 to Last Observed Stage 2” value (treatment for 50 weeks) was 0 Number (%) of Subjects and the “Excoriated/Crusts PAS Category Shift: Baseline Stage 4 to Last Observed Stage 3” value (treatment for 50 weeks) was 0 Number (%) of Subjects. For the same compound, the “Excoriated/Crusts PAS Category Shift: Baseline Stage 4 to Last Observed Stage 4” value (treatment for 50 weeks) was 1 (7.7%) Number (%) of Subjects, the “Excoriated/Crusts PAS: Last Observed PAS Result Stage 0” value (treatment for 50 weeks) was 2 (15.4) Number (%) of Subjects and the “Excoriated/Crusts PAS: Last Observed PAS Result Stage 1” value (treatment for 50 weeks) was 6 (46.2) Number (%) of Subjects. For the same compound, the “Excoriated/Crusts PAS: Last Observed PAS Result Stage 2” value (treatment for 50 weeks) was 2 (15.4) Number (%) of Subjects, the “Excoriated/Crusts PAS: Last Observed PAS Result Stage 3” value (treatment for 50 weeks) was 1 (7.7) Number (%) of Subjects and the “Excoriated/Crusts PAS: Last Observed PAS Result Stage 4” value (treatment for 50 weeks) was 2 (15.4) Number (%) of Subjects. For the same compound, the “Excoriated/Crusts PAS Category Shift: Baseline Stage 0 to Last Observed Stage 0” value [1] was 1 (5.9%) Number (%) of Subjects, the “Excoriated/Crusts PAS Category Shift: Baseline Stage 0 to Last Observed Stage 1” value [1] was 0 Number (%) of Subjects and the “Excoriated/Crusts PAS Category Shift: Baseline Stage 0 to Last Observed Stage 2” value [1] was 0 Number (%) of Subjects. For the same compound, the “Excoriated/Crusts PAS Category Shift: Baseline Stage 0 to Last Observed Stage 3” value [1] was 0 Number (%) of Subjects, the “Excoriated/Crusts PAS Category Shift: Baseline Stage 0 to Last Observed Stage 4” value [1] was 0 Number (%) of Subjects and the “Excoriated/Crusts PAS Category Shift: Baseline Stage 1 to Last Observed Stage 0” value [1] was 0 Number (%) of Subjects. The “Excoriated/Crusts PAS Category Shift: Baseline Stage 1 to Last Observed Stage 1” value [1] was 1 (5.9%) Number (%) of Subjects, the “Excoriated/Crusts PAS Category Shift: Baseline Stage 1 to Last Observed Stage 2” value [1] was 0 Number (%) of Subjects and the “Excoriated/Crusts PAS Category Shift: Baseline Stage 1 to Last Observed Stage 3” value [1] was 0 Number (%) of Subjects. For the same compound, the “Excoriated/Crusts PAS Category Shift: Baseline Stage 1 to Last Observed Stage 4” value [1] was 1 (5.9%) Number (%) of Subjects, the “Excoriated/Crusts PAS Category Shift: Baseline Stage 2 to Last Observed Stage 0” value [1] was 1 (5.9%) Number (%) of Subjects and the “Excoriated/Crusts PAS Category Shift: Baseline Stage 2 to Last Observed Stage 1” value [1] was 5 (29.4%) Number (%) of Subjects. For the same compound, the “Excoriated/Crusts PAS Category Shift: Baseline Stage 2 to Last Observed Stage 2” value [1] was 0 Number (%) of Subjects.
